Experimental data published in patent US20250114345A1, “COMPOUNDS AND COMPOSITIONS AS CBP/P300 DEGRADERS AND USES THEREOF” (Oncopia Therapeutics, Inc. d/b/a/ SK Life Science Labs, priority 2023, published 2025).

Target: T1, p300 (Homo sapiens, UniProt Q09472)
T1 construct: host or cells: A549 P300 HiBit cells
Test: P300 degradation, HiBit technology in A549 P300 HiBit cells (2 h)
Assay type: cell-based
Conditions: 2 hrs post treatment; for Dmax: A549, A549 P300 HiBit cells; for DC50: A549 P300 HiBit cells
Method in brief: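 A549 HiBiT knock-in cells seeded overnight at 37 °C, 5% CO2 in F-12K with 10% heat-inactivated FBS, then given serial dilutions of compound from 10 mM DMSO stocks. Lytic HiBiT detection reagent added for 10 min at room temperature; luminescence read. Potency and Dmax reported.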

T1 sequence (Q09472 whole entry): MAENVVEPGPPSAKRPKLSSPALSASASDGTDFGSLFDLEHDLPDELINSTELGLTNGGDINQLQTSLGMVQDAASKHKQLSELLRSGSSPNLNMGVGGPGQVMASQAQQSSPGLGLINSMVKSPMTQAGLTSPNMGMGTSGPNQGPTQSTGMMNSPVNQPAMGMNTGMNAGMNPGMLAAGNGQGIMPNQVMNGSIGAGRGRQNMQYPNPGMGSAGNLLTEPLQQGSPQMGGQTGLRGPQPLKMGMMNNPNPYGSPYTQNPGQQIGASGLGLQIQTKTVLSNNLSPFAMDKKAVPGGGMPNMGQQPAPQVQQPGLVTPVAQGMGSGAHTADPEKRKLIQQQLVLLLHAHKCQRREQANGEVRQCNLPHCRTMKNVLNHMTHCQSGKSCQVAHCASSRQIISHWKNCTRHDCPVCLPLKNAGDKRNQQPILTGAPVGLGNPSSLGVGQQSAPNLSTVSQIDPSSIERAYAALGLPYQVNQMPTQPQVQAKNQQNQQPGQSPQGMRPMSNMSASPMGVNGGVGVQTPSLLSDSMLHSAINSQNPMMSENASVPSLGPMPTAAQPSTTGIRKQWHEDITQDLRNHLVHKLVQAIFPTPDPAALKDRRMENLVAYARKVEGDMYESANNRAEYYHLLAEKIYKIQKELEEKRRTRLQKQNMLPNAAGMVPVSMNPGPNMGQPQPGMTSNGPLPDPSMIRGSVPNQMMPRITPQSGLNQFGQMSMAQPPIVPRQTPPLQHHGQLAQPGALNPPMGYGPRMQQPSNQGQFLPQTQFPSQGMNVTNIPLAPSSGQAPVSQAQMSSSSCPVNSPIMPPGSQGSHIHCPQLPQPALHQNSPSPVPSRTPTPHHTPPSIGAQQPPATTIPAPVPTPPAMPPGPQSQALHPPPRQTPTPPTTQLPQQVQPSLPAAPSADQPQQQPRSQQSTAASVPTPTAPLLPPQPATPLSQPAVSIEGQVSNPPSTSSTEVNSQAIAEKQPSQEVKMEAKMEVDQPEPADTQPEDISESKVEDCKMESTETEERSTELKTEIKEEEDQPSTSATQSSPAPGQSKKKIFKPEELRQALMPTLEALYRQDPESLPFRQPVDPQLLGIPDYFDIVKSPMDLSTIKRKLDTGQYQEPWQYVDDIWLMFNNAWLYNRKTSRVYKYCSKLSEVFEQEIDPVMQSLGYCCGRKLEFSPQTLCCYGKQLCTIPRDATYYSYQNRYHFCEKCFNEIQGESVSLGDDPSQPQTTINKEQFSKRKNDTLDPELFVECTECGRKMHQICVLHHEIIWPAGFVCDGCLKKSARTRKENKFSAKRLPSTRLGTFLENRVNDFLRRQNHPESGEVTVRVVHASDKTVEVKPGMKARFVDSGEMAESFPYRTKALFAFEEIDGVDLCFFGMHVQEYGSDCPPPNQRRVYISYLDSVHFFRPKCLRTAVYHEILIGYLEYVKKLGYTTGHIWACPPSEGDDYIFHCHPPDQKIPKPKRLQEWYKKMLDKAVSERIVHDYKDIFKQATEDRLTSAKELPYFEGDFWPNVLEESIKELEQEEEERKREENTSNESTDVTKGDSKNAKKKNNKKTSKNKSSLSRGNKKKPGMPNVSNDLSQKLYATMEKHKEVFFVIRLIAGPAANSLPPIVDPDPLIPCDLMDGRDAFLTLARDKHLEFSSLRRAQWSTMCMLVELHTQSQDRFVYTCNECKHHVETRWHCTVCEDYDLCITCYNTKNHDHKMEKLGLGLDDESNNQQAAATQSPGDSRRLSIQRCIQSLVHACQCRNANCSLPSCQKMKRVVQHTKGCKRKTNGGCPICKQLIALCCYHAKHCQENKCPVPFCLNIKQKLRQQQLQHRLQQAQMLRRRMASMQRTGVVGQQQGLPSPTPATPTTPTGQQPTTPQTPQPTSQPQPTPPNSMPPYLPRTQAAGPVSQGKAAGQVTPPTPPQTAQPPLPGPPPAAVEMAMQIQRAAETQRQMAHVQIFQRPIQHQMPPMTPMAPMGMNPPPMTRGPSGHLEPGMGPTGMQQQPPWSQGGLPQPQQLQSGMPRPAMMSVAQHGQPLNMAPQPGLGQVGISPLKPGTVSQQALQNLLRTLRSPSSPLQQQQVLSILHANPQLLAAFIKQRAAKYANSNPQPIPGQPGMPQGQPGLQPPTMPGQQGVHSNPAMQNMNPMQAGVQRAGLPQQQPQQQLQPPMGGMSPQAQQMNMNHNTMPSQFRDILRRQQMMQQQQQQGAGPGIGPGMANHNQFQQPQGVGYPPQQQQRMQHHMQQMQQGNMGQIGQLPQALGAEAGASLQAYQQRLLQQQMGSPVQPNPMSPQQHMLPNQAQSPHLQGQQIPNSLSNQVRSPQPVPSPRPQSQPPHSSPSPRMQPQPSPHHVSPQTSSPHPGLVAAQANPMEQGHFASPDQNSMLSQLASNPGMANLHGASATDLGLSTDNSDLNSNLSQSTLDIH

| SMILES | Dmax [%] | DC50 [nM] |
| --- | --- | --- |
| CC(C)c1cc(-c2cccc3cc(-c4ccc(C(=O)NCC#Cc5cc6c(C7CCC(=O)NC7=O)coc6cn5)nc4)ncc23)cc2c1n(C)c(=O)n2C (stereo not shown) [Example A228, N-(3-(3-(2,6-dioxo-piperidin-3-yl)furo[2,3-c]pyridin-5-yl)prop-2-yn-1-yl)-5-(8-(7-isopropyl-1,3-dimethyl-2-oxo-2,3-dihydro-1H-benzo [d]imidazol-5-yl)isoquinolin-3-yl)picolinamide] | 60 to 79 | 1 to 9.9 |
| Cn1cc(-c2ccc3c(c2)n(C)c(=O)n3C)c2cnc(-c3ccc(C(=O)NCC#Cc4cc5c(C6CCC(=O)NC6=O)nccc5o4)nc3)cc2c1=O (stereo not shown) [Example A230, 5-(8-(1,3-dimethyl-2-oxo-2,3-dihydro-1H-benzo[d]imidazol-5-yl)-6-methyl-5-oxo-5,6-dihydro-2,6-naphthyridin-3-yl)-N-(3-(4-(2,6-dioxopiperidin-3-yl)furo[3,2-c]pyridin-2-yl)prop-2-yn-1-yl)picolinamide] | > 80 | 1 to 9.9 |
| Cc1cc(-c2ncc3c(n2)CCCN3c2ccc3c(c2)n(C)c(=O)n3C)cnc1C(=O)NCC#Cc1cc2c(C3CCC(=O)NC3=O)cccc2o1 (stereo not shown) [Example A231, 5-(5-(1,3-dimethyl-2-oxo-2,3-dihydro-1H-benzo[d]imidazol-5-yl)-5,6,7,8-tetra-hydropyrido[3,2-d]pyrimidin-2-yl)-N-(3-(4-(2,6-dioxo-piperidin-3-yl)benzofuran-2-yl)prop-2-yn-1-yl)-3-methylpicolinamide] | > 80 | 1 to 9.9 |
| CC(C)c1cc(-c2cccc3cc(-c4ccc(C(=O)NCC#Cc5cc6c(C7CCC(=O)NC7=O)cn(C)c6cn5)nc4)ncc23)cc2c1n(C)c(=O)n2C (stereo not shown) [Example A232, N-(3-(3-(2,6-dioxo-piperidin-3-yl)-1-methyl-1H-pyrrolo [2,3-c]pyridin-5-yl)prop-2-yn-1-yl)-5-(8-(7-isopropyl-1,3-dimethyl-2-oxo-2,3-dihydro-1H-benzo[d]imidazol-5-yl)isoquinolin-3-yl)picolinamide] | 40 to 59 | 10 to 99 |
| Cc1cc(-c2ncc(Nc3cc(C4CCOCC4)c4c(c3)n(C)c(=O)n4C)cn2)cnc1C(=O)NCC#Cc1cc2c(C3CCC(=O)NC3=O)cccc2o1 (stereo not shown) [Example A236, 5-(5-((1,3-dimethyl-2-oxo-7-(tetrahydro-2H-pyran-4-yl)-2,3-dihydro-1H-benzo[d]imidazol-5-yl)amino)pyrimidin-2-yl)-N-(3-(4-(2,6-dioxopiperidin-3-yl)benzofuran-2-yl)prop-2-yn-1-yl)-3-methylpicolinamide] | 40 to 59 | 10 to 99 |
| CC(C)c1cc(-c2cccc3cc(-c4ccc(C(=O)NCC#Cc5cc6c(C7CCC(=O)NC7=O)coc6cc5C#N)nc4)ncc23)cc2c1n(C)c(=O)n2C (stereo not shown) [Example A240, N-(3-(6-cyano-3-(2,6-dioxopiperidin-3-yl)benzofuran-5-yl)prop-2-yn-1-yl)-5-(8-(7-isopropyl-1,3-dimethyl-2-oxo-2,3-dihydro-1H-benzo [d]imidazol-5-yl)isoquinolin-3-yl)picolinamide] | 40 to 59 | 10 to 99 |
| Cc1cc(-c2ncc3c(n2)OCCN3c2cc(C)c3c(c2)n(C)c(=O)n3C)cnc1C(=O)NCC#Cc1cc2c(C3CCC(=O)NC3=O)cccc2o1 (stereo not shown) [Example A241, N-(3-(4-(2,6-dioxo-piperidin-3-yl)benzofuran-2-yl)prop-2-yn-1-yl)-3-methyl-5-(5-(1,3,7-trimethyl-2-oxo-2,3-dihydro-1H-benzo [d]imidazol-5-yl)-6,7-dihydro-5H-pyrimido [4,5-b][1,4]oxazin-2-yl)picolinamide] | > 80 | 1 to 9.9 |
| Cc1cc(-c2cc(F)c(Nc3cc(C4CCOCC4)c4c(c3)n(C)c(=O)n4C)cc2C(F)(F)F)cnc1C(=O)NCC#Cc1cc2c(C3CCC(=O)NC3=O)cccc2o1 (stereo not shown) [Example A244, 5-(4-((1,3-dimethyl-2-oxo-7-(tetrahydro-2H-pyran-4-yl)-2,3-dihydro-1H-benzo[d]imidazol-5-yl)amino)-5-fluoro-2-(trifluoromethyl)phenyl)-N-(3-(4-(2,6-dioxopiperidin-3-yl)benzofuran-2-yl)prop-2-yn-1-yl)-3-methylpicolinamide] | 40 to 59 | 10 to 99 |

Other lines, results leading:

| Dmax [%] | DC50 [nM] | SMILES |
| --- | --- | --- |
| > 80 | 1 to 9.9 | Cc1cc(-c2ncc3c(n2)CCCN3c2cc(C)c3c(c2)n(C)c(=O)n3C)cnc1C(=O)NCC#Cc1cc2c(C3CCC(=O)NC3=O)cccc2o1 (stereo not shown) [Example A227, N-(3-(4-(2,6-dioxo-piperidin-3-yl)benzofuran-2-yl)prop-2-yn-1-yl)-3-methyl-5-(5-(1,3,7-trimethyl-2-oxo-2,3-dihydro-1H-benzo [d]imidazol-5-yl)-5,6,7,8-tetrahydro-pyrido[3,2-d]pyrimidin-2-yl)picolinamide] |
| > 80 | < 1 | CN(c1cnc(-c2ccc(C(=O)NCC#Cc3cc4c(C5CCC(=O)NC5=O)cccc4o3)nc2)nc1)c1cc(C2CCOCC2)c2c(c1)n(C)c(=O)n2C (stereo not shown) [Example A229, 5-(5-((1,3-dimethyl-2-oxo-7-(tetrahydro-2H-pyran-4-yl)-2,3-dihydro-1H-benzo[d]imidazol-5-yl)(methyl)amino)pyrimidin-2-yl)-N-(3-(4-(2,6-dioxo-piperidin-3-yl)benzofuran-2-yl)prop-2-yn-1-yl)picolinamide] |
| 40 to 59 | 10 to 99 | CC(C)c1cc(-c2cccc3cc(-c4ccc(C(=O)NCC#Cc5cc(C#N)c6occ(C7CCC(=O)NC7=O)c6c5)nc4)ncc23)cc2c1n(C)c(=O)n2C (stereo not shown) [Example A233, N-(3-(7-cyano-3-(2,6-dioxopiperidin-3-yl)benzofuran-5-yl)prop-2-yn-1-yl)-5-(8-(7-isopropyl-1,3-dimethyl-2-oxo-2,3-dihydro-1H-benzo [d]imidazol-5-yl)isoquinolin-3-yl)picolinamide] |
| > 80 | 1 to 9.9 | Cc1cc(-c2ncc(N(C)c3cc(C(C)C)c4c(c3)n(C)c(=O)n4C)cn2)cnc1C(=O)NCC#Cc1cc2c(C3CCC(=O)NC3=O)coc2cc1F (stereo not shown) [Example A235, N-(3-(3-(2,6-dioxo-piperidin-3-yl)-6-fluorobenzofuran-5-yl)prop-2-yn-1-yl)-5-(5-((7-isopropyl-1,3-dimethyl-2-oxo-2,3-dihydro-1H-benzo [d]imidazol-5-yl)(methyl)amino)pyrimidin-2-yl)-3-methylpicolinamide] |
| > 80 | < 1 | Cc1cc(N2CCN(C)c3cc(-c4ccc(C(=O)NCC#Cc5cc6c(C7CCC(=O)NC7=O)cccc6o5)nc4)ncc32)cc2c1n(C)c(=O)n2C (stereo not shown) [Example A239, N-(3-(4-(2,6-dioxo-piperidin-3-yl)benzofuran-2-yl)prop-2-yn-1-yl)-5-(1-methyl-4-(1,3,7-trimethyl-2-oxo-2,3-dihydro-1H-benzo [d]imidazol-5-yl)-1,2,3,4-tetrahydro-pyrido[3,4-b]pyrazin-7-yl)picolinamide] |
| > 80 | 1 to 9.9 | CN1CCN(c2ccc3c(c2)n(C)c(=O)n3C)c2cc(C(F)(F)F)c(-c3ccc(C(=O)NCC#Cc4cc5c(C6CCC(=O)NC6=O)cccc5o4)nc3)cc21 (stereo not shown) [Example A242, 5-(1-(1,3-dimethyl-2-oxo-2,3-dihydro-1H-benzo[d]imidazol-5-yl)-4-methyl-7-(trifluoromethyl)-1,2,3,4-tetrahydroquinoxalin-6-yl)-N-(3-(4-(2,6-dioxopiperidin-3-yl)benzofuran-2-yl)prop-2-yn-1-yl)picolinamide] |
